Assay results taken from ChEMBL document CHEMBL4359828, “Back to the future: Advances in development of broad-spectrum capsid-binding inhibitors of enteroviruses” (Eur J Med Chem, 2019).

Columns and labels:
[1] = test system: rhinovirus B14; assay: Antiviral activity against Human rhinovirus B14; assay type: functional, organism-based; conditions: Rhinovirus B
[2] = test system: rhinovirus B5; assay: Antiviral activity against Human rhinovirus B5; assay type: functional, organism-based; conditions: Rhinovirus B
[3] = Antiviral activity against Human rhinovirus B3; assay type: functional
[4] = test system: rhinovirus A2; assay: Antiviral activity against Human rhinovirus A2; assay type: functional, organism-based; conditions: Rhinovirus A
[5] = test system: Coxsackievirus B3; assay: Antiviral activity against Coxsackievirus B3; assay type: functional, organism-based; conditions: Enterovirus B
[6] = test system: Enterovirus; assay: Antiviral activity against Rhinovirus at 32 uM relative to control; assay type: functional
[7] = test system: Poliovirus 2; assay: Antiviral activity against Human poliovirus 2; assay type: functional, organism-based; conditions: Enterovirus C
[8] = test system: Echovirus E9; assay: Antiviral activity against Echovirus 9; assay type: functional, organism-based; conditions: Enterovirus B
[9] = test system: Coxsackievirus A9; assay: Antiviral activity against Coxsackievirus A9; assay type: functional, organism-based; conditions: Enterovirus B
[10] = test system: Enterovirus A71; assay: Antiviral activity against Enterovirus A71 genotype A; assay type: functional, organism-based
[11] = test system: Enterovirus A71; assay: Antiviral activity against Enterovirus A71 genotype C; assay type: functional, organism-based; conditions: Enterovirus A
[12] = test system: Enterovirus A71; assay: Antiviral activity against Enterovirus A71 genotype B; assay type: functional, organism-based; conditions: Enterovirus A
[13] = test system: enterovirus D68; assay: Antiviral activity against Enterovirus D68; assay type: functional, organism-based; conditions: Enterovirus D
[14] = test system: Coxsackievirus A24; assay: Antiviral activity against Coxsackievirus A24; assay type: functional, organism-based; conditions: Enterovirus C
[15] = test system: Enterovirus A71; assay: Antiviral activity against Enterovirus A71; assay type: functional, organism-based; conditions: Enterovirus A
[16] = test system: Enterovirus; assay: Antiviral activity against Rhinovirus; assay type: functional, organism-based
[17] = test system: HeLa; assay: Cytotoxicity against human HeLa cells after 3 days by MTT assay; assay type: functional, cell-based; conditions: 72 h
[18] = test system: Enterovirus; assay: Antiviral activity against Enterovirus clinical isolate; assay type: functional, organism-based
[19] = test system: Echovirus E11; assay: Antiviral activity against Echovirus-11; assay type: functional, organism-based; conditions: Enterovirus B
[20] = Antiviral activity against Echovirus-3; assay type: functional, Echovirus E3
[21] = test system: Poliovirus 2; assay: Antiviral activity against Human poliovirus 2 infected in mouse; assay type: functional, organism-based; conditions: Enterovirus C
[22] = test system: Human rhinovirus sp.; assay: Antiviral activity against Human rhinovirus clinical isolates relative to control; assay type: functional
[23] = test system: Enterovirus C; assay: Antiviral activity against Poliovirus assessed as reduction in virus induced cytopathic effect; assay type: functional, organism-based
[24] = test system: Enterovirus C; assay: Antiviral activity against Poliovirus; assay type: functional, organism-based
[25] = test system: Human rhinovirus sp.; assay: Antiviral activity against Human rhinovirus clinical isolates; assay type: functional, organism-based
[26] = test system: Enterovirus C; assay: Antiviral activity against Poliovirus assessed as reduction in virus induced cytopathic effect relative to control; assay type: functional
[27] = test system: Poliovirus 2; assay: Antiviral activity against Human poliovirus 2 relative to control; assay type: functional
[28] = Antiviral activity against Human rhinovirus A8; assay type: functional
[29] = Antiviral activity against Human rhinovirus B42; assay type: functional
[30] = Antiviral activity against Human rhinovirus B48; assay type: functional

Cc1cc(CCCCCOc2c(Cl)cc(-c3cccs3)cc2Cl)on1
IC50 [1]: 7320 nM

Cc1ccc(-c2cc(C)c(OCCCc3cc(C)no3)c(C)c2)cc1
IC50 [2]: 110 nM | IC50 [3]: 120 nM

Cc1cc(CCCOc2c(C)cc(-c3ccc(C)c(C)c3)cc2C)on1
IC50 [4]: 9 nM | IC50 [5]: 1340 nM

Cc1cc(CCCOc2c(C)cc(-c3ccc([N+](=O)[O-])cc3)cc2C)on1
IC50 [2]: 760 nM | IC50 [3]: 760 nM

Cc1cc(CCCOc2c(C)cc(-c3cccc(C(F)(F)F)c3)cc2C)on1
IC50 [4]: 9 nM | IC50 [5]: 1340 nM

Cc1cc(CCCCCOc2c(Cl)cc(-c3nnn(C)n3)cc2Cl)on1
IC50 [1]: 1200 nM

COc1ccc(N2CCN(c3cccc(C)c3)CC2)nn1
inhibition at 32 µM [6]: 80%

Cc1cc(CCCOc2c(C)cc(-c3cccc([N+](=O)[O-])c3)cc2C)on1
IC50 [2]: 350 nM | IC50 [3]: 350 nM

Cc1cc(CCCCCOc2c(Cl)cc(-c3ncco3)cc2Cl)on1
IC50 [1]: 1830 nM

Cc1cc(CCCCCCCOc2ccc(C3=NC(C)(C)CO3)cc2)on1
IC50 [4]: 40 to 60 nM | IC50 [7]: 100 to 120 nM

O=C1N(CCCCCOc2ccc(Br)cc2)CCN1c1ccncc1
IC50 [8]: 2600 nM | IC50 [9]: 470 to 550 nM | IC50 [10]: 300 to 1600 nM | IC50 [11]: 300 to 1600 nM | IC50 [12]: 300 to 1600 nM | IC50 [13]: 2130 nM | IC50 [14]: 470 to 550 nM

Cc1cc(CCCCCOc2c(Cl)cc(-c3ccc(Cl)o3)cc2Cl)on1
IC50 [1]: 2000 nM

Cc1cc(CCCCCOc2ccc(C3=NCCO3)cc2)on1
IC50 [4]: 100 to 120 nM | IC50 [7]: 3 nM

Cc1cc(CCCCCOc2c(Cl)cc(-c3cccnc3)cc2Cl)on1
IC50 [1]: 970 nM

Cc1nc(-c2ccc(OCCC(C)CCN3CCN(c4ccncc4)C3=O)cc2)no1 (centres undefined)
EC50 [15]: 0.9 nM

Cc1cc(CCCOc2c(C)cc(-c3ccc(OC(F)(F)F)cc3)cc2C)on1
IC50 [4]: 9 nM | IC50 [5]: 1340 nM

COc1ccc(OCCCCCCn2ccnc2)c(Cl)c1
EC50 ([16]; Enterovirus): 10200 to 29100 nM

Cc1cc(CCCOc2c(C)cc(-c3ccc(F)cc3)cc2C)on1
IC50 [2]: 110 nM | IC50 [4]: 9 nM | IC50 [3]: 120 nM | IC50 [5]: 1340 nM

Cc1cc(CCCOc2c(C)cc(-c3cccc(F)c3)cc2C)on1
IC50 [4]: 9 nM | IC50 [5]: 1340 nM

Cc1cc(CCCOc2c(C)cc(-c3cccc4ccccc34)cc2C)on1
IC50 [4]: 9 nM | IC50 [5]: 1340 nM

Cc1cc(CCCOc2c(C)cc(-c3noc(C(F)(F)F)n3)cc2C)on1 [PLECONARIL]
IC50 [17]: ≤ 180 nM | IC50 [18]: ≤ 30 nM

Cc1cc(CCCCCOc2c(Cl)cc(-c3cnco3)cc2Cl)on1
IC50 [1]: 12800 nM

Cc1cc(CCCCCOc2c(Cl)cc(-c3ccco3)cc2Cl)on1
IC50 [1]: 710 nM

CCc1nc(-c2ccc(OCCC(C)CCN3CCN(c4ccncc4)C3=O)cc2)no1 (centres undefined)
EC50 [15]: 0.5 nM

Cc1cc(CCCCCCCOc2ccc(C3=NC(CO)CO3)cc2)on1 (centres undefined)
IC50 [4]: 900 to 2600 nM | IC50 [7]: 900 to 2600 nM

Cc1cc(CCCCCOc2c(Cl)cc(-c3ccc(C)s3)cc2Cl)on1
IC50 [1]: 5200 nM

COc1ccc(OCCCCCCCc2cc(C)no2)c(Cl)c1
IC50 [19]: 40 to 150 nM | IC50 [20]: 40 to 150 nM | IC50 [21]: 40 to 150 nM | IC50 ([16]; Enterovirus): 10 to 5800 nM

Cc1cc(CCCOc2c(C)cc(-c3ccc(Cl)cc3)cc2C)on1
IC50 [2]: 110 nM | IC50 [3]: 120 nM

Cc1cc(CCCCCOc2c(Cl)cc(-c3ccc(Cl)s3)cc2Cl)on1
IC50 [1]: 5300 nM

Cc1cc(CCCCCOc2c(Cl)cc(-c3ccc(C)o3)cc2Cl)on1
IC50 [1]: 2640 nM

Cc1cc(CCCOc2c(C)cc(-c3ccc(O)cc3)cc2C)on1
IC50 [2]: 770 nM | IC50 [3]: 770 nM

COc1ccc(OCc2ccc(COc3c(Cl)cccc3Cl)cc2)c(Cl)c1
Activity [22]: 80% | EC50 [7]: 900 nM | EC50 [23]: 3 to 126 nM | EC50 [24]: < 76 nM | EC50 [25]: 900 nM | inhibition (INH) [26]: 90% | Activity [27]: 80%

Cc1cc(CCCOc2c(C)cc(-c3cc(C(F)(F)F)cc(C(F)(F)F)c3)cc2C)on1
IC50 [4]: 9 nM | IC50 [5]: 1340 nM

Cc1cc(CCCOc2c(C)cc(-c3cccc(O)c3)cc2C)on1
IC50 [2]: 440 nM | IC50 [3]: 440 nM

Cc1cc(CCCOc2c(C)cc(-c3ccccc3C)cc2C)on1
IC50 [4]: 9 nM | IC50 [5]: 1340 nM

Nc1nc(-c2ccccc2)nc2[nH]nc(Nc3ccc(C(F)(F)F)cc3)c12
IC50 [2]: 40 to 640 nM | IC50 [4]: 40 to 640 nM | IC50 [28]: 40 to 640 nM | IC50 [29]: 40 to 640 nM | IC50 [5]: 40 to 640 nM | IC50 [30]: 40 to 640 nM

Cc1cc(CCCCCCOc2ccc(C3=NCCO3)cc2)on1
IC50 [4]: 100 to 120 nM | IC50 [7]: 8 nM

Cc1cc(CCCCCCCOc2ccc(C3=NC(C)CO3)cc2)on1 (centres undefined)
IC50 [4]: 40 to 60 nM | IC50 [7]: 100 to 120 nM

Cc1cc(CCCCCCCOc2ccc(C3=NCCO3)cc2)on1 [DISOXARIL]
IC50 [4]: 4 nM | IC50 [7]: 4 nM | IC50 [16]: 4 to 6200 nM

Cc1cc(CCCOc2c(C)cc(-c3ccc(-c4ccccc4)cc3)cc2C)on1
IC50 [4]: 9 nM | IC50 [5]: 1340 nM

Cc1cc(CCCOc2c(C)cc(-c3ccc(C(F)(F)F)cc3)cc2C)on1
IC50 [4]: 9 nM | IC50 [5]: 1340 nM

Cc1cc(CCCCCCCOc2ccc(C3=NCC(CO)O3)cc2)on1 (centres undefined)
IC50 [4]: 900 to 2600 nM | IC50 [7]: 900 to 2600 nM

COc1cc(-c2cc(C)c(OCCCc3cc(C)no3)c(C)c2)cc(OC)c1OC
IC50 [4]: 9 nM | IC50 [5]: 1340 nM

Cc1cc(CCCOc2c(C)cc(-c3ccccc3F)cc2C)on1
IC50 [2]: 110 nM | IC50 [3]: 120 nM

COc1ccc(OCc2ccc(COc3ccc(OC)cc3Cl)cc2)c(Cl)c1
EC50 ([16]; Enterovirus): 10 nM
